Data as given in US20250084116A1, “MIXTURE OF STEREOISOMERS OF A SULFATED GLYCOLIPID” (NATIONAL RESEARCH COUNCIL OF CANADA, priority 2022, published 2025).
Entries after “also recorded” stand apart in the source; their conditions may differ.

Key:
C57BL/6NCrl mice [1] = experiment: Anti-Ova total IgG titres in serum of immunized mice (ELISA); type: in vivo; settings: day 28, two immunizations, 1 μg Ova and 1 mg SLA
Description: (§1) C57BL/6NCrl mice (6-8 weeks) were obtained from Charles River Laboratories (Saint-Constant, QC, Canada). Mice were maintained in individually ventilated cages with five female mice to a cage with easy access to food and water in a specific pathogen-free small animal facility with automatically controlled light/dark cycles, humidity and temperature at the National Research Council of Canada (NRC) in accordance with the guidelines of the Canadian Council on Animal Care. The animal use protocol (2016.08) was approved by the NRC Animal Care Committee. All mice were randomized upon entering the facility and were immunized and had samples collected and tested in a blinded method.
C57BL/6NCrl mice were immunized by i.m. injection (50 μL) into the left tibialis anterior muscle. All mice were immunized twice in a prime/boost regime on day 0 and day 21. […]
Anti-Ova total IgG titers in mouse serum were quantified by ELISA as described previously.^11-12 Briefly, 96-well high-binding ELISA plates (Thermo Fisher Scientific, Waltham, MA, USA) were coated overnight with 10 μg/mL of the Ova protein used for immunization. […] No detectable titers were measured in serum samples from naïve control animals.
(§2) Data were analyzed using GraphPad Prism 9® (GraphPad Software, San Diego, CA, USA). […]

C57BL/6NCrl mice [2] = experiment: Enumeration of IFN-γ secreting Ova-CD8+ T cells in spleen by ELISPOT; type: in vivo; settings: for Number of IFN γ-secreting Ova-CD8+ T cells, comparison with AddaVax-Ova (ANOVA, Tukey) / Number of IFN γ-secreting Ova-CD8+ T cells, comparison with MPL/alum-Ova (ANOVA, Tukey): 10 μg Ova and 1 mg SLA; for Change in ability to induce IFN-γ+ Ova-CD8+ T cells on reducing SLA dose: 1.0 mg reduced to 0.3 mg SLA; for Differences between SLA formulations to produce IFN-γ+ Ova-CD8+ T cells: at each dose tested
Description: as §1
(§3) C57BL/6NCrl mice were immunized by i.m. injection (50 μL) into the left tibialis anterior muscle. All mice were immunized twice in a prime/boost regime on day 0 and day 21. Blood samples were taken for sera collection before boost on day 20 as well as on day 28 immediately prior to euthanasia where whole spleens were collected in necropsy.
(§4) SLA archaeosomes were prepared as described previously.^12 Briefly, SLA lipids (SLA-1, SLA-2 or SLA-3) were dissolved in chloroform/methanol and aliquoted to a glass vial; the organic solvent was removed under N2 gas with mild heating to form a thin lipid layer. A vacuum was applied for at least 2 h to ensure total removal of trace solvents. The lipid film was then hydrated with 1.0 mL of Milli-Q water and was shaken for 2 h at 40° C. or until hydration was completed. Archaeosome vesicles were reduced in size using a tabletop ultrasonic water bath (Fisher Scientific FS60H, 130 W and operating frequency of 40 kHz) and high pressure; they were then left to anneal at 4° C. for 12 h in static conditions and finally filter-sterilized through 0.22 μm filter units. The Ova protein solution (type VI, Sigma-Aldrich, Oakville, ON, Canada) was then added to the empty archaeosomes at the desired amount immediately before immunization so that a single dose contained 1 mg or 0.3 mg of SLA and 10 μg or 1 μg of antigen. The commercial adjuvant AddaVax™ (squalene-oil-in-water emulsion, Invivogen, San Diego, CA, USA) was prepared according to manufacturer's recommendations and mixed with 10 μg Ova protein at 1:1, v:v. The TLR4 agonist monophosphoryl Lipid A (MPLA from S. Minnesota R595 VacciGrade, InvivoGen, San Diego, CA, USA) was combined with Alum (Alhydrogel™ “85”, aluminum hydroxide, Brenntag Biosector, Frederikssund, Denmark), 10 μg: 40 μg respectively and 1 μg Ova. All solutions were brought to a physiological pH of 7.4 in phosphate-buffered saline (PBS).
The Enumeration of IFN-γ secreting cells was done by use of an ELISPOT assay as previously described.^12 Briefly, spleen cells (at a final cell density of 4×10^5 cells/well) were added to 96-well ELISPOT plates coated with anti-IFN-γ (Mabtech Inc., Cincinnati, OH, USA), and incubated in the presence of a peptide stimulant (or non-stimulant control) for 20 h at 37° C., 5% CO2. Peptide stimulant consisted of SIINFEKL, an Ovalbumin CD8^+ T cell epitope Ova257-264. Plates were then incubated, washed and developed using AEC substrate (Becton Dickinson, Franklin Lakes, NJ, USA) and counted using an automated ELISPOT plate reader by BIOSYS (Miami, FL, USA).
Data were analyzed using GraphPad Prism 9® (GraphPad Software, San Diego, CA, USA). Antibody titers were log transformed prior to testing and shown as geometric mean titer (GMT) with the lower and upper 95% confidence interval shown in the graph and written in the text. All in vivo generated data were analyzed with the one-way analysis of variance (ANOVA) test followed by post-hoc analysis using Tukey's multiple comparisons test (comparisons among all groups), as indicated in the figure legends. For all analyses, differences were considered to be not significant with p>0.05.

C57BL/6NCrl mice [3] = experiment: In vivo cytotoxicity assay of Ova-CD8+ T cells; settings: for In vivo cytotoxicity of Ova-CD8+ T cells, comparison with AddaVax-Ova (ANOVA, Tukey): 10 μg Ova and 1 mg SLA, target cells injected day 27, read day 28; for Change in cytotoxic killing on reducing SLA dose: 1.0 mg reduced to 0.3 mg SLA; for CD8+ T cell cytotoxicity at lower Ova antigen or SLA adjuvant dose: lower dose (1 μg Ova or 0.3 mg SLA) versus optimal dose
Description: as §1, §3, §4
The activity of antigen-specific CD8^+ T cells (CTL) was measured in vivo as previously described.^10 Briefly, donor spleen-cell suspensions from naïve C57BL/6NCrl mice were prepared. Cells were split into two aliquots. One aliquot was incubated at 37° C. with […] SIINFEKL (JPT Peptide Technologies GmbH) in RIO complete medium (RPMI 1640 with 10% heat-inactivated fetal bovine serum, 1% penicillin/streptomycin, 1% glutamine and 55 μM 2-mercaptoethanol) (Thermo Fisher Scientific, Waltham, MA, USA). After 30 min of incubation, the peptide-pulsed aliquot was stained with a high 10× concentration of CFSE (2.5 μM; Thermo Fisher Scientific); the second non-peptide-pulsed aliquot was stained with 1×CFSE ([…]). Two aliquots of cells (10×10^6/each) were mixed 1:1 and injected into previously immunized recipient mice. Mice injected with Ova alone dissolved in PBS served as controls. At ˜20 to 22 h after the donor cell transfer, spleens were removed from recipients, single-cell suspensions prepared, and cells analyzed by flow cytometry on a BD Fortessa flow cytometer (Becton Dickinson, Franklin Lakes, NJ, USA). The in vivo percentage of peptide pulsed targets relative to non-peptide pulsed targets was enumerated according to a previously published equation.^21, 24-25
as §2

Row | Compound | Anti-Ova IgG titres, comparison with MPL/alum (one-way ANOVA, Tukey) (C57BL/6NCrl mice [1]) | Number of IFN γ-secreting Ova-CD8+ T cells, comparison with AddaVax-Ova (ANOVA, Tukey) (C57BL/6NCrl mice [2]; day 28) | Number of IFN γ-secreting Ova-CD8+ T cells, comparison with MPL/alum-Ova (ANOVA, Tukey) (C57BL/6NCrl mice [2]; day 28) | Change in ability to induce IFN-γ+ Ova-CD8+ T cells on reducing SLA dose (C57BL/6NCrl mice [2]) | Adjuvant effectiveness relative to SLA-1 (IFN-γ ELISPOT) (C57BL/6NCrl mice [2]; FIG. 7) | Differences between SLA formulations to produce IFN-γ+ Ova-CD8+ T cells (C57BL/6NCrl mice [2]) | In vivo cytotoxicity of Ova-CD8+ T cells, comparison with AddaVax-Ova (ANOVA, Tukey) (C57BL/6NCrl mice [3]) | Change in cytotoxic killing on reducing SLA dose (C57BL/6NCrl mice [3]) | Adjuvant effectiveness relative to SLA-1 (cytotoxic killing) (C57BL/6NCrl mice [3]; FIG. 8) | CD8+ T cell cytotoxicity at lower Ova antigen or SLA adjuvant dose (C57BL/6NCrl mice [3]) | IFN-γ detectable spots (C57BL/6NCrl mice [2]; Ova antigen alone, unadjuvanted, day 28)
1 | CC(C)CCCC(C)CCCC(C)CCCC(C)CCOCC(CO[C@@H]1OC(CO)C(O[C@@H]2OC(COS(=O)(=O)O)C(O)[C@H](O)C2O)[C@H](O)C1O)OCCC(C)CCCC(C)CCCC(C)CCCC(C)C (mixture of isomers) [SLA-3] | SLA-3>MPL/alum-Ova | SLA-3>AddaVax™-Ova | SLA-3>MPL/alum-Ova | Lesser reductions | at least as effective as SLA-1; also recorded: as effective an adjuvant as semi-synthetically produced SLA | no statistically significant differences | SLA-3>AddaVax™-Ova | Lesser reductions | at least as effective as SLA-1 | lower CD8^+ T cell cytotoxicity | 
2 | CC(C)CCCC(C)CCCC(C)CCCC(C)CCOC[C@@H](CO[C@@H]1O[C@H](CO)[C@@H](O[C@@H]2O[C@H](COS(=O)(=O)O)[C@H](O)[C@H](O)[C@H]2O)[C@H](O)[C@H]1O)OCCC(C)CCCC(C)CCCC(C)CCCC(C)C (stereo partly drawn) [SLA-1, 6′-sulfate-β-D-Galp-(1,4)-β-D-Glcp-(1,1)-archaeol, reference compound] | SLA-1>MPL/alum-Ova | SLA-1>AddaVax™-Ova | SLA-1>MPL/alum-Ova | significantly reduces |  | no statistically significant differences | SLA-1>AddaVax™-Ova | significantly reduces |  | lower CD8^+ T cell cytotoxicity | 
3 | Ova: Ova protein (type VI, Sigma-Aldrich), model antigen; unadjuvanted control group [reference compound] |  |  |  |  |  |  |  |  |  |  | less than three
